According to patent US20150105252A1, “SUBSTITUTED PYRAZOLES AS HERBICIDES” (E I DU PONT DE NEMOURS AND COMPANY, priority 2013, published 2015):

Experiments:
common ragweed = assay: Test A preemergence; type: in vivo, Ambrosia elation
Outline: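 After sowing in a sand–loam mix, pots received compound preemergence by directed soil spray, or postemergence once plants reached the one- to two-leaf stage (2–10 cm). Formulation contained surfactant in a non-phytotoxic solvent. Injury was scored visually after ~10 greenhouse days, 0–100 scale.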

chickweed [1] = assay: Test D preemergence; type: in vivo, Stellaria media; conditions: scale 0 to 100
Outline: (§1)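 Formulation was a non-phytotoxic solvent mixture plus surfactant, applied either to soil at planting (silt loam, preemergence) or to foliage of 2–18 cm plants (postemergence). Visual evaluation versus controls followed at 14–21 days, scored 0–100.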

field poppy = assay: Test D preemergence; type: in vivo, Papaver rhoeas; conditions: scale 0 to 100
Excerpt: (§2) Seeds of plant species selected from bluegrass (annual bluegrass, Poa annua), blackgrass (Alopecurus myosuroides), canarygrass (littleseed canarygrass, Phalaris minor), chickweed (common chickweed, Stellaria media), galium (catchweed bedstraw, Galium aparine), bromegrass, downy (downy bromegrass, Bromus tectorum), field poppy (Papaver rhoeas), field violet (Viola arvensis), foxtail, green (green foxtail, Setaria viridis), deadnettle (henbit deadnettle, Lamium amplexicaule), ryegrass, Italian (Italian ryegrass, Lolium multiflorum), kochia (Kochia scoparia), lambsquarters (Chenopodium album), oilseed rape (Brassica napus), pigweed (redroot pigweed, Amaranthus retroflexus), chamomile (scentless chamomile, Matricaria inodora), speedwell (bird's-eye speedwell, Veronica persica), barley, spring (spring barley, Hordeum vulgare), wheat, spring (spring wheat, Triticum aestivum), buckwheat, wild (wild buckwheat, Polygonum convolvulus), mustard, wild (wild mustard, Sinapis arvensis), oat, wild (wild oat, Avena fatua), radish, wild (wild radish, Raphanus raphanistrum), windgrass (Apera spica-venti), Russian thistle (Salsola kali), barley, winter (winter barley, Hordeum vulgare), and wheat, winter (winter wheat, Triticum aestivum) were planted into a silt loam soil and treated preemergence with test chemicals formulated in a non-phytotoxic solvent mixture which included a surfactant.
(§3) At the same time, these species were planted in pots containing Redi-Earth® planting medium (Scotts Company, 14111 Scottslawn Road, Marysville, Ohio 43041) comprising spaghnum peat moss, vermiculite, wetting agent and starter nutrients and treated with postemergence applications of the test chemicals formulated in the same manner. Plants ranged in height from 2 to 18 cm (1- to 4-leaf stage). Treated plants and controls were maintained in a controlled growth environment for 14 to 21 days after which time all species were compared to controls and visually evaluated. Plant response ratings, summarized in Table D, are based on a scale of 0 to 100 where 0 is no effect and 100 is complete control. A dash (-) response means no test result.

windgrass = assay: Test D preemergence; type: in vivo, Apera spica-venti; conditions: scale 0 to 100
Outline: as §1

canarygrass = assay: Test D postemergence; type: in vivo, Phalaris minor; conditions: scale 0 to 100
Outline: as §1

chickweed [2] = assay: Test D postemergence; type: in vivo, Stellaria media; conditions: scale 0 to 100
Excerpt: as §2, §3

oilseed rape = assay: Test D postemergence; type: in vivo, Brassica napus; conditions: scale 0 to 100
Outline: as §1

hairy beggarticks = assay: Test F postemergence; type: in vivo, Bidens pilosa; conditions: scale 0 to 100
Outline: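 Seeds were sown in silt loam and sprayed preemergence with compound in a non-phytotoxic solvent mixture containing surfactant. Postemergence sprays went onto plants 2 to 18 cm tall (1- to 4-leaf stage). After 14 to 21 days in a greenhouse, injury was rated visually against untreated controls, 0 (no effect) to 100 (complete control).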

horseweed = assay: Test F postemergence; type: in vivo, Conyza canadensis; conditions: scale 0 to 100
Excerpt: Seeds of plant species selected from corn (Zea mays), soybean (Glycine max), velvetleaf (Abutilon theophrasti), lambsquarters (Chenopodium album), wild poinsettia (Euphorbia heterophylla), pigweed, palmer (palmer pigweed, Amaranthus palmeri), common waterhemp (Amaranthus rudis), surinam grass (Brachiaria decumbens), large crabgrass (Digitaria sanguinalis), crabgrass, Brazil (Brazilian crabgrass, Digitaria horizontalis), fall panicum (Panicum dichotomiflorum), giant foxtail (Setaria faberii), green foxtail (Setaria viridis), goosegrass (Eleusine indica), johnsongrass (Sorghum halepense), common ragweed (Ambrosia elation), barnyardgrass (Echinochloa crus-galli), southern sandbur (Cenchrus echinatus), arrowleaf sida (Sida rhombifolia), Italian ryegrass (Lolium multiflorum), dayflower, VA (Virginia (VA) dayflower, Commelina virginica), field bindweed (Convolvulus arvensis), cocklebur (common cocklebur, Xanthium strumarium), morningglory (Ipomoea coccinea), nightshade (eastern black nightshade, Solanum ptycanthum), kochia (Kochia scoparia), yellow nutsedge (Cyperus esculentus), and hairy beggarticks (Bidens pilosa), were planted into a silt loam soil and treated preemergence with test chemicals formulated in a non-phytotoxic solvent mixture which included a surfactant.
At the same time, plants from these crop and weed species and also horseweed (Canada horseweed, Conyza canadensis), smartweed (ladysthumb smartweed, Polygonum persicaria), waterhemp_RES1, (ALS & Triazine resistant common waterhemp, Amaranthus rudis), and waterhemp_RES2, (ALS & HPPD resistant common waterhemp, Amaranthus rudis) were treated with postemergence applications of test chemicals formulated in the same manner. Plants ranged in height from 2 to 18 cm for postemergence treatments (1- to 4-leaf stage). Treated plants and controls were maintained in a greenhouse for 14 to 21 days, after which time all species were compared to controls and visually evaluated. Plant response ratings, summarized in Table F, are based on a scale of 0 to 100 where 0 is no effect and 100 is complete control. A dash (-) response means no test result.

[3] = 125 g ai/ha, visual injury, 0 to 100 scale, approx. 10 days
[4] = 500 g ai/ha, visual injury after approx. 10 days, 0 to 100 scale (0 no effect, 100 complete control)

## CCONC(=O)c1cc(CC)n(Cc2cc(C(F)(F)F)no2)n1 [Compound 125]
Common ragweed; [3]
  Common Ragweed plant response rating: 50
Common ragweed; [4]
  Common Ragweed plant response rating: 90

## CCOc1cc(C(=O)NC2CC2)nn1Cc1ccnc(OC(F)F)c1 [Compound 133]
Common ragweed; [3]
  Common Ragweed plant response rating: 80
Common ragweed; [4]
  Common Ragweed plant response rating: 90

## CCOc1cc(C(=O)NC(C)C)nn1Cc1ccnc(C(F)(F)F)c1 [Compound 188]
Chickweed [1]; 31 g ai/ha
  Plant response rating, Chickweed: 100
Chickweed [1]; 62 g ai/ha
  Plant response rating, Chickweed: 100
Chickweed [1]; 125 g ai/ha
  Plant response rating, Chickweed: 100
Chickweed [1]; 250 g ai/ha
  Plant response rating, Chickweed: 100
Field poppy; 62 g ai/ha
  Plant response rating, Field Poppy: 100
Field poppy; 125 g ai/ha
  Plant response rating, Field Poppy: 100
Field poppy; 250 g ai/ha
  Plant response rating, Field Poppy: 100
windgrass; 62 g ai/ha
  Plant response rating, Windgrass: 100
windgrass; 125 g ai/ha
  Plant response rating, Windgrass: 100
windgrass; 250 g ai/ha
  Plant response rating, Windgrass: 100
canarygrass; Postemergence, 31 g ai/ha
  Canarygrass plant response rating: 15
canarygrass; Postemergence, 125 g ai/ha
  Canarygrass plant response rating: 20
canarygrass; Postemergence, 250 g ai/ha
  Canarygrass plant response rating: 35
canarygrass; postemergence, 62 g ai/ha
  Canarygrass plant response rating: 15
Chickweed [2]; Postemergence, 31 g ai/ha
  Chickweed plant response rating: 65
Chickweed [2]; Postemergence, 125 g ai/ha
  Chickweed plant response rating: 75
Chickweed [2]; Postemergence, 250 g ai/ha
  Chickweed plant response rating: 95
Chickweed [2]; postemergence, 62 g ai/ha
  Chickweed plant response rating: 65
Oilseed rape; Postemergence, 31 g ai/ha
  Oilseed Rape plant response rating: 55
Oilseed rape; Postemergence, 125 g ai/ha
  Oilseed Rape plant response rating: 55
Oilseed rape; Postemergence, 250 g ai/ha
  Oilseed Rape plant response rating: 70
Oilseed rape; postemergence, 62 g ai/ha
  Oilseed Rape plant response rating: 55
Hairy beggarticks; Postemergence, 31 g ai/ha
  Plant response rating, Hairy Beggarticks: 50
Hairy beggarticks; Postemergence, 125 g ai/ha
  Plant response rating, Hairy Beggarticks: 50
Hairy beggarticks; Postemergence, 250 g ai/ha
  Plant response rating, Hairy Beggarticks: 60
Hairy beggarticks; postemergence, 62 g ai/ha
  Plant response rating, Hairy Beggarticks: 60
Hairy beggarticks; postemergence, 500 g ai/ha
  Plant response rating, Hairy Beggarticks: 75
horseweed; Postemergence, 31 g ai/ha
  Plant response rating, Horseweed: 20
horseweed; Postemergence, 125 g ai/ha
  Plant response rating, Horseweed: 30
horseweed; Postemergence, 250 g ai/ha
  Plant response rating, Horseweed: 40
horseweed; postemergence, 62 g ai/ha
  Plant response rating, Horseweed: 30
horseweed; postemergence, 500 g ai/ha
  Plant response rating, Horseweed: 50

## CCc1cc(C(=O)NCC(F)(F)F)nn1Cc1cc(OC(F)F)nn1C [Compound 206]
Common ragweed; 125 g ai/ha, visual injury approx. 10 days after treatment
  Common Ragweed plant response rating (0 to 100 scale): 0
Common ragweed; [4]
  Common Ragweed plant response rating: 40
